# System: 556581-035-R-J1-PDC complex spheroid growth
# Test: Anticancer human tumor 556581-035-R-J1-PDC patient-derived ovarian carcinoma cell line growth inhibition [AhR]
# Settings: for IC50: curve of first compound; for viability, T/C: stronger effect = lower value
# How it was run: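 Complex tumor spheroids co-cultured with HUVEC and human MSC stroma; AhR antagonists tested in combination with standard-of-care and investigational agents. Top concentration at or near clinical Cmax (else 10 microM), half-log dilutions; growth expressed as percent test/control.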
# 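For viability, T/C in this document: compound exposure lasted 7 days; 100% = DMSO vehicle control growth.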
smiles,measurement,setting,value
CC1COCCN1c1cc(C2(S(C)(=N)=O)CC2)nc(-c2ccnc3[nH]ccc23)n1 (stereo not given) + CC(CO)NC(=O)c1cc(-c2ccc(Cl)cc2)nn(-c2cnn(C)c2)c1=O,IC50,second compound 0.1 µM,> 10 µM
same,IC50,second compound 0.316 µM,> 10 µM
same,IC50,second compound 1 µM,> 10 µM
same,IC50,second compound 3.16 µM,> 10 µM
same,IC50,second compound 10 µM,> 10 µM
same,"viability, T/C","second compound 0.1 µM, first compound 0.0316 µM",116%
same,"viability, T/C","second compound 0.1 µM, first compound 0.1 µM",113%
same,"viability, T/C","second compound 0.1 µM, first compound 0.316 µM",101%
same,"viability, T/C","second compound 0.1 µM, first compound 1 µM",92%
same,"viability, T/C","second compound 0.1 µM, first compound 3.16 µM",86.2%
same,"viability, T/C","second compound 0.1 µM, first compound 10 µM",69.1%
same,"viability, T/C","second compound 0.316 µM, first compound 0.0316 µM",97.1%
same,"viability, T/C","second compound 0.316 µM, first compound 0.1 µM",113%
same,"viability, T/C","second compound 0.316 µM, first compound 0.316 µM",105%
same,"viability, T/C","second compound 0.316 µM, first compound 1 µM",90.1%
same,"viability, T/C","second compound 0.316 µM, first compound 3.16 µM",81.4%
same,"viability, T/C","second compound 0.316 µM, first compound 10 µM",70.2%
same,"viability, T/C","second compound 1 µM, first compound 0.0316 µM",111%
same,"viability, T/C","second compound 1 µM, first compound 0.1 µM",105%
same,"viability, T/C","second compound 1 µM, first compound 0.316 µM",116%
same,"viability, T/C","second compound 1 µM, first compound 1 µM",98.2%
same,"viability, T/C","second compound 1 µM, first compound 3.16 µM",78.2%
same,"viability, T/C","second compound 1 µM, first compound 10 µM",67.6%
same,"viability, T/C","second compound 3.16 µM, first compound 0.0316 µM",105%
same,"viability, T/C","second compound 3.16 µM, first compound 0.1 µM",104%
same,"viability, T/C","second compound 3.16 µM, first compound 0.316 µM",107%
same,"viability, T/C","second compound 3.16 µM, first compound 1 µM",89.4%
same,"viability, T/C","second compound 3.16 µM, first compound 3.16 µM",83.5%
same,"viability, T/C","second compound 3.16 µM, first compound 10 µM",71.8%
same,"viability, T/C","second compound 10 µM, first compound 0.0316 µM",118%
same,"viability, T/C","second compound 10 µM, first compound 0.1 µM",119%
same,"viability, T/C","second compound 10 µM, first compound 0.316 µM",110%
same,"viability, T/C","second compound 10 µM, first compound 1 µM",101%
same,"viability, T/C","second compound 10 µM, first compound 3.16 µM",81.2%
same,"viability, T/C","second compound 10 µM, first compound 10 µM",72.5%
CCN(c1cc(-c2ccc(CN3CCOCC3)cc2)cc(C(=O)NCc2c(C)cc(C)[nH]c2=O)c1C)C1CCOCC1 + CC(CO)NC(=O)c1cc(-c2ccc(Cl)cc2)nn(-c2cnn(C)c2)c1=O,IC50,second compound 0.1 µM,> 3 µM
same,IC50,second compound 0.316 µM,> 3 µM
same,IC50,second compound 1 µM,> 3 µM
same,IC50,second compound 3.16 µM,> 3 µM
same,IC50,second compound 10 µM,> 3 µM
same,"viability, T/C","second compound 0.1 µM, first compound 0.00949 µM",103%
same,"viability, T/C","second compound 0.1 µM, first compound 0.03 µM",102%
same,"viability, T/C","second compound 0.1 µM, first compound 0.0949 µM",94.7%
same,"viability, T/C","second compound 0.1 µM, first compound 0.3 µM",94.7%
same,"viability, T/C","second compound 0.1 µM, first compound 0.949 µM",102%
same,"viability, T/C","second compound 0.1 µM, first compound 3 µM",91.8%
same,"viability, T/C","second compound 0.316 µM, first compound 0.00949 µM",102%
same,"viability, T/C","second compound 0.316 µM, first compound 0.03 µM",91.2%
same,"viability, T/C","second compound 0.316 µM, first compound 0.0949 µM",96.5%
same,"viability, T/C","second compound 0.316 µM, first compound 0.3 µM",92.2%
same,"viability, T/C","second compound 0.316 µM, first compound 0.949 µM",108%
same,"viability, T/C","second compound 0.316 µM, first compound 3 µM",91.8%
same,"viability, T/C","second compound 1 µM, first compound 0.00949 µM",106%
same,"viability, T/C","second compound 1 µM, first compound 0.03 µM",106%
same,"viability, T/C","second compound 1 µM, first compound 0.0949 µM",117%
same,"viability, T/C","second compound 1 µM, first compound 0.3 µM",105%
same,"viability, T/C","second compound 1 µM, first compound 0.949 µM",87.8%
same,"viability, T/C","second compound 1 µM, first compound 3 µM",106%
same,"viability, T/C","second compound 3.16 µM, first compound 0.00949 µM",106%
same,"viability, T/C","second compound 3.16 µM, first compound 0.03 µM",99.7%
same,"viability, T/C","second compound 3.16 µM, first compound 0.0949 µM",90.7%
same,"viability, T/C","second compound 3.16 µM, first compound 0.3 µM",95%
same,"viability, T/C","second compound 3.16 µM, first compound 0.949 µM",100%
same,"viability, T/C","second compound 3.16 µM, first compound 3 µM",87.9%
same,"viability, T/C","second compound 10 µM, first compound 0.00949 µM",94.9%
same,"viability, T/C","second compound 10 µM, first compound 0.03 µM",101%
same,"viability, T/C","second compound 10 µM, first compound 0.0949 µM",113%
same,"viability, T/C","second compound 10 µM, first compound 0.3 µM",94.6%
same,"viability, T/C","second compound 10 µM, first compound 0.949 µM",89.8%
same,"viability, T/C","second compound 10 µM, first compound 3 µM",94.8%
